Data published in patent US20250205221A1, “MUSCLE RELAXANT” (priority 2022, published 2025).

How the values were obtained:
[1] = tested on: twitch response of the gastrocnemius muscle; experiment: Evaluation of neuromuscular blocking effect (time to complete recovery of twitch response); format: in vivo, Male Sprague Dawley rats; conditions: for time until the muscle contraction (twitch response) was completely recovered: rats under isoflurane, dose inducing 95-99.9% neuromuscular block (ED95-99.9) via right jugular vein, sciatic nerve stimulation 0.1 Hz; for duration of action relative to succinylcholine: rats, doses inducing 95-99.9% neuromuscular block
Procedure: Male Sprague Dawley rats (about 300 g body weight) were used in the experiment. Anesthesia was first induced by 4 to 5% isoflurane inhalation and then maintained by 2 to 3% isoflurane inhalation. A warming system was used to keep the body temperature at 36 to 37° C. Lidocaine was infiltrated into the incision site. Tracheostomy was performed and a 16G catheter was inserted to secure the airway. The animals were ventilated by isoflurane and oxygen inhalation using a rodent ventilator at a tidal volume of 10 mL/kg and a respiratory rate of 70/min. A […] catheter was indwelled in the right jugular vein for drug administration. A small slide electrode was attached to the sciatic nerve, and supramaximal stimulation was applied at a frequency of 0.1 Hz and a pulse width of 0.2 ms using an electrostimulator. Using a force transducer, the twitch response of the gastrocnemius muscle was captured, amplified, and recorded. After the amplitude of the twitch response stabilized, a dose of succinylcholine or the JH-cpd series (JH013, JH014) inducing 95-99.9% neuromuscular block was administered, and the time until the muscle contraction (twitch response) was completely recovered was measured.

[2] = reported in Non-Patent Document 1; cited from earlier work

## COc1ccc(CC2c3cc(OC)c(OC)cc3CC[N+]2(C)CCCOC(=O)/C=C/C(=O)OCC[N+](C)(C)C)cc1OC (stereo not drawn) [JH013]
[1]
  time until the muscle contraction (twitch response) was completely recovered: 5.5 min
  duration of action relative to succinylcholine: approximately half

## COc1ccc(CC2c3cc(OC)c(OC)cc3CC[N+]2(C)CCOC(=O)/C=C/C(=O)OCC[N+](C)(C)C)cc1OC (stereo not drawn) [JH014]
[1]
  time until the muscle contraction (twitch response) was completely recovered: 7.5 min
  duration of action relative to succinylcholine: approximately two-thirds

## C[N+](C)(C)CCOC(=O)CCC(=O)OCC[N+](C)(C)C [succinylcholine, reference compound]
[1]
  time until the muscle contraction (twitch response) was completely recovered: 11 min
[2]
  duration of action at clinical doses: approximately 10 minutes
